Legend:
[1] = system: LAPC4 prostate cancer cells, which express the AKT1 E17K allele; experiment: Antiproliferative effects in LAPC4 cells (CellTiter Glo, 72 h); assay type: cell-based; settings: Homo sapiens, LAPC4, 72 h, read-out: LAPC4 proliferation IC50: GeoMean IC50
Summary of the method: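 Cells grown in IMDM with 12% FBS, seeded at 1,000 cells/well and treated with compound dilutions in DMSO for 72 h. Intracellular ATP read by luminescence. IC50 from a log(inhibitor) vs. response Hill fit.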

AKT1 E17K = biological target: T1, AKT1 E17K (Homo sapiens, UniProt P31749, E17K); experiment: Live cell target engagement by NanoBRET competitive probe displacement, AKT1 E17K; assay type: binding; settings: transfected HEK293 cells, 2 h at 37° C., read-out: AKT1 E17K IC50: GeoMean IC50
T1 construct: expressed in transfected cells; host or cells: HEK293

AKT2 = biological target: T2, AKT2 (Homo sapiens, UniProt P31751); experiment: Live cell target engagement by NanoBRET competitive probe displacement, AKT2; assay type: binding; settings: transfected HEK293 cells, 2 h at 37° C., read-out: AKT2 IC50: GeoMean IC50
T2 construct: expressed in transfected cells; host or cells: HEK293

AKT1 WT = biological target: T3, AKT1 WT (Homo sapiens, UniProt P31749); experiment: Live cell target engagement by NanoBRET competitive probe displacement, AKT1 WT; assay type: binding; settings: transfected HEK293 cells, 2 h at 37° C., read-out: AKT1 WT IC50: GeoMean IC50
T3 construct: expressed in transfected cells; host or cells: HEK293
T3 sequence (P31749 whole entry): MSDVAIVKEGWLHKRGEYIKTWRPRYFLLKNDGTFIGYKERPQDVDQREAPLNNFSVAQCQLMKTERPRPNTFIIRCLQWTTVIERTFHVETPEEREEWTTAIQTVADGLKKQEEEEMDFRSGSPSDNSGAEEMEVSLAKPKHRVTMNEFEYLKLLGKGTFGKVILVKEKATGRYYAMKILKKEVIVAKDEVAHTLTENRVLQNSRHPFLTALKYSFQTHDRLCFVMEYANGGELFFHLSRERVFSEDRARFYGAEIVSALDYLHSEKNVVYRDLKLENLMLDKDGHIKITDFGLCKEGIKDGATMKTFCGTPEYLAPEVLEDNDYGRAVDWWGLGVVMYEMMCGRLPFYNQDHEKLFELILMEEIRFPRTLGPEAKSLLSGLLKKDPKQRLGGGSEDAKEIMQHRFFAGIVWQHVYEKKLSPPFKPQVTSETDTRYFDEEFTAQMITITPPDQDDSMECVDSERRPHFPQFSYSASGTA

T1 sequence (P31749 whole entry E17K): as the sequence (P31749 whole entry) above, with E17K counted along it
T2 sequence (P31751 whole entry): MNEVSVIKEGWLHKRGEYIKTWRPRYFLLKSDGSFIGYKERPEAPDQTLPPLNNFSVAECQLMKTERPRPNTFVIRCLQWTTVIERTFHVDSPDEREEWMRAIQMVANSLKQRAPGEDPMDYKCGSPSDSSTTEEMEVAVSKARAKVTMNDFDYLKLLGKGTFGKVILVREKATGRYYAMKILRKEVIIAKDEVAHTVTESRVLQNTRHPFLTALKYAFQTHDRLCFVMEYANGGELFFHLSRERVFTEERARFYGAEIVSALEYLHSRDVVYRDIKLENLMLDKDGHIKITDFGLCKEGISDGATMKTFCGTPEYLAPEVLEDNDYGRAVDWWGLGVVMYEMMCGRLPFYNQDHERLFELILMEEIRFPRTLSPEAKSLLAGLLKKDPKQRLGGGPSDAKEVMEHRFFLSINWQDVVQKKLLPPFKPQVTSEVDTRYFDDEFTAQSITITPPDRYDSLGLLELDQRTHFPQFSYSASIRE

SMILES | IC50 [1] [nM] | IC50 (AKT1 E17K) [nM] | IC50 (AKT2) [nM] | IC50 (AKT1 WT) [nM]
Nc1ncccc1-c1nc2ccc(Br)nc2n1-c1ccc2c(c1)CC[C@@H]2NC(=O)c1ccc(O)c(C=O)c1 [Example 37, (S)—N-(5-(2-(2-aminopyridin-3-yl)-5-bromo-3H-imidazo[4,5-b]pyridin-3-yl)-2,3-dihydro-1H-inden-1-yl)-3-formyl-4-hydroxybenzamide] | 100 to 2000 | 10 to 100 | ≥ 2000 | 100 to 2000
Nc1ncccc1-c1nc2ccc(-c3cccnc3)nc2n1-c1ccc2c(c1)CC[C@@H]2NC(=O)c1ccc(O)c(C=O)c1 [Example 23, N-[(1S)-5-[2-(2-aminopyridin-3-yl)-5-(pyridin-3-yl)imidazo[4,5-b]pyridin-3-yl]-2,3-dihydro-1H-inden-1-yl]-3-formyl-4-hydroxybenzamide] | 10 to 100 | 10 to 100 | 100 to 2000 | 10 to 100
Nc1ncccc1-c1nc2ccc(-c3ncc(F)s3)nc2n1-c1ccc2c(c1)CC[C@@H]2NC(=O)c1cc(C=O)c(O)c(F)c1F [Example 193, N-[(1S)-5-[2-(2-aminopyridin-3-yl)-5-(5-fluoro-1,3-thiazol-2-yl)imidazo[4,5-b]pyridin-3-yl]-2,3-dihydro-1H-inden-1-yl]-2,3-difluoro-5-formyl-4-hydroxybenzamide] | 10 to 100 | 10 to 100 | 10 to 100 | 10 to 100
Nc1ncccc1-c1nc2ccc(-c3nccs3)nc2n1-c1ccc2c(c1)CC[C@@H]2NC(=O)c1cc(F)c(O)c(C=O)c1 [Example 130, N-[(1S)-5-[2-(2-aminopyridin-3-yl)-5-(1,3-thiazol-2-yl)imidazo[4,5-b]pyridin-3-yl]-2,3-dihydro-1H-inden-1-yl]-3-fluoro-5-formyl-4-hydroxybenzamide] | 10 to 100 | 10 to 100 | 100 to 2000 | 10 to 100
Nc1ncccc1-c1nc2ccc(-c3ccncc3)nc2n1-c1ccc2c(c1)CC[C@@H]2NC(=O)c1ccc(O)c(C=O)c1 [Example 24, N-[(1S)-5-[2-(2-aminopyridin-3-yl)-5-(pyridin-4-yl)imidazo[4,5-b]pyridin-3-yl]-2,3-dihydro-1H-inden-1-yl]-3-formyl-4-hydroxybenzamide] | 10 to 100 | 10 to 100 | 100 to 2000 | 10 to 100
Cn1ccc(-c2ccc3nc(-c4cccnc4N)n(-c4ccc5c(c4)CC[C@@H]5NC(=O)c4ccc(O)c(C=O)c4)c3n2)n1 [Example 59, (S)—N-(5-(2-(2-aminopyridin-3-yl)-5-(1-methyl-1H-pyrazol-3-yl)-3Himidazo[4,5-b]pyridin-3-yl)-2,3-dihydro-1H-inden-1-yl)-3-formyl-4-hydroxybenzamide] | 10 to 100 | 10 to 100 | 100 to 2000 | 10 to 100
Nc1ncccc1-c1nc2c(N3CCOCC3)cc(-n3cccn3)nc2n1-c1ccc2c(c1)CC[C@@H]2NC(=O)c1ccc(O)c(C=O)c1 [Example 224, N-[(1S)-5-[2-(2-aminopyridin-3-yl)-7-(morpholin-4-yl)-5-(pyrazol-1-yl)imidazo[4,5-b]pyridin-3-yl]-2,3-dihydro-1H-inden-1-yl]-3-formyl-4-hydroxybenzamide] | 10 to 100 | 10 to 100 | 100 to 2000 | 10 to 100
COc1cc(-n2cccn2)nc2c1nc(-c1cccnc1N)n2-c1ccc2c(c1)CC[C@@H]2NC(=O)c1cc(C=O)c(O)cc1F [Example 221, N-[(1S)-5-[2-(2-aminopyridin-3-yl)-7-methoxy-5-(pyrazol-1-yl)imidazo[4,5-b]pyridin-3-yl]-2,3-dihydro-1H-inden-1-yl]-2-fluoro-5-formyl-4-hydroxybenzamide] | 10 to 100 | 10 to 100 | 100 to 2000 | 10 to 100
CN1CCN(c2cccc(-c3ccc4nc(-c5cccnc5N)n(-c5ccc6c(c5)CC[C@@H]6NC(=O)c5ccc(O)c(C=O)c5)c4n3)c2)CC1 [Example 19, (S)—N-(5-(2-(2-aminopyridin-3-yl)-5-(3-(4-methylpiperazin-1-yl)phenyl)-3H-imidazo[4,5-b]pyridin-3-yl)-2,3-dihydro-1H-inden-1-yl)-3-formyl-4-hydroxybenzamide] | 10 to 100 | < 10 | < 10 | < 10
Nc1ncccc1-c1nc2ccc(-c3nccs3)nc2n1-c1ccc2c(c1)CC[C@@H]2NC(=O)c1cc(C=O)c(O)c(F)c1F [Example 140, (S)—N-(5-(2-(2-aminopyridin-3-yl)-5-(thiazol-2-yl)-3H-imidazo[4,5-b]pyridin-3-yl)-2,3-dihydro-1H-inden-1-yl)-2,3-difluoro-5-formyl-4-hydroxybenzamide] | < 10 | < 10 | 10 to 100 | < 10
Cc1cc(-n2cccn2)nc2c1nc(-c1cccnc1N)n2-c1ccc2c(c1)CC[C@@H]2NC(=O)c1cc(C=O)c(O)c(F)c1F [Example 153, (S)—N-(5-(2-(2-aminopyridin-3-yl)-7-methyl-5-(1H-pyrazol-1-yl)-3H-imidazo[4,5-b]pyridin-3-yl)-2,3-dihydro-1H-inden-1-yl)-2,3-difluoro-5-formyl-4-hydroxybenzamide] | 10 to 100 | 10 to 100 | 10 to 100 | 10 to 100
CS(=O)(=O)Nc1ncc(C(=O)N[C@H]2CCc3cc(-n4c(-c5cccnc5N)nc5ccc(-n6cccn6)nc54)ccc32)cc1C=O [Example 111, N-[(1S)-5-[2-(2-aminopyridin-3-yl)-5-(pyrazol-1-yl)imidazo[4,5-b]pyridin-3-yl]-2,3-dihydro-1H-inden-1-yl]-5-formyl-6-methanesulfonamidopyridine-3-carboxamide] | ≥ 2000 | 100 to 2000 | ≥ 2000 | 100 to 2000
Cc1cnn(-c2ccc3nc(-c4cccnc4N)n(-c4ccc5c(c4)CC[C@@H]5NC(=O)c4ccc(O)c(C=O)c4)c3n2)c1 [Example 77, (S)—N-(5-(2-(2-aminopyridin-3-yl)-5-(4-methyl-1H-pyrazol-1-yl)-3H imidazo[4,5-b]pyridin-3-yl)-2,3-dihydro-1H-inden-1-yl)-3-formyl-4-hydroxybenzamide] | 100 to 2000 | 10 to 100 | 100 to 2000 | 10 to 100
Nc1ncccc1-c1nc2ccc(-c3nccnc3F)nc2n1-c1ccc2c(c1)CC[C@@H]2NC(=O)c1ccc(O)c(C=O)c1 [Example 109, N-[(1S)-5-[2-(2-aminopyridin-3-yl)-5-(3-fluoropyrazin-2-yl)imidazo[4,5-b]pyridin-3-yl]-2,3-dihydro-1H-inden-1-yl]-3-formyl-4-hydroxybenzamide] | 100 to 2000 | 10 to 100 | 100 to 2000 | 100 to 2000
COc1cc(F)c(C(=O)N[C@H]2CCc3cc(-n4c(-c5cccnc5N)nc5ccc(-n6cccn6)nc54)ccc32)cc1C=O [Example 236, N-[(1S)-5-[2-(2-aminopyridin-3-yl)-5-(pyrazol-1-yl)imidazo[4,5-b]pyridin-3-yl]-2,3-dihydro-1H-inden-1-yl]-2-fluoro-5-formyl-4-methoxybenzamide] | 100 to 2000 | 10 to 100 | 10 to 100 | < 10
Nc1ncccc1-c1nc2ccc(-c3ccn(C4COC4)n3)nc2n1-c1ccc2c(c1)CC[C@@H]2NC(=O)c1ccc(O)c(C=O)c1 [Example 171, N-[(1S)-5-[2-(2-aminopyridin-3-yl)-5-[1-(oxetan-3-yl)pyrazol-3-yl]imidazo[4,5-b]pyridin-3-yl]-2,3-dihydro-1H-inden-1-yl]-3-formyl-4-hydroxybenzamide] | 100 to 2000 | 10 to 100 | 100 to 2000 | 10 to 100
Nc1ncccc1-c1nc2ccc(-n3cc(C=O)cn3)nc2n1-c1ccc2c(c1)CC[C@@H]2NC(=O)c1ccc(O)c(C=O)c1 [Example 84, N-[(1S)-5-[2-(2-aminopyridin-3-yl)-5-(4-formylpyrazol-1-yl)imidazo[4,5-b]pyridin-3-yl]-2,3-dihydro-1H-inden-1-yl]-3-formyl-4-hydroxybenzamide] | 100 to 2000 | 10 to 100 | 100 to 2000 | 100 to 2000
COc1ccc2nc(-c3cccnc3N)n(-c3ccc4c(c3)CC[C@@H]4NC(=O)c3ccc(O)c(C=O)c3)c2n1 [Example 46, (S)—N-(5-(2-(2-aminopyridin-3-yl)-5-methoxy-3H-imidazo[4,5-b]pyridin-3-yl)-2,3-dihydro-1H-inden-1-yl)-3-formyl-4-hydroxybenzamide] | 100 to 2000 | 100 to 2000 | ≥ 2000 | 100 to 2000
CN1CCN(c2ccc3nc(-c4cccnc4N)n(-c4ccc5c(c4)CC[C@@H]5NC(=O)c4ccc(O)c(C=O)c4)c3n2)CC1 [Example 38, (S)—N-(5-(2-(2-aminopyridin-3-yl)-5-(4-methylpiperazin-1-yl)-3H-imidazo[4,5-b]pyridin-3-yl)-2,3-dihydro-1H-inden-1-yl)-3-formyl-4-hydroxybenzamide] | 100 to 2000 | 10 to 100 | ≥ 2000 | 100 to 2000
Cc1nc(-c2ccc3nc(-c4cccnc4N)n(-c4ccc5c(c4)CC[C@@H]5NC(=O)c4ccc(O)c(C=O)c4)c3n2)no1 [Example 173, N-[(1S)-5-[2-(2-aminopyridin-3-yl)-5-(5-methyl-1,2,4-oxadiazol-3-yl)imidazo[4,5-b]pyridin-3-yl]-2,3-dihydro-1H-inden-1-yl]-3-formyl-4-hydroxybenzamide] | 100 to 2000 | 10 to 100 | 100 to 2000 | 10 to 100

Source: patent US20260053834A1, “COVALENT MODIFIERS OF AKT1 AND USES THEREOF” (Terremoto Biosciences, Inc., priority 2023, published 2026)
